From PubChem BioAssay (NCI)
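Values below derive from 48-hour exposures of cells grown in 96-well plates, with endpoints linearly interpolated between the two concentrations bracketing the appropriate inhibition level. GI50 = concentration required for 50% inhibition of growth. TGI denotes the concentration required for complete inhibition of growth.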

Columns and labels:
Assay in all cases: NCI tumour cell line growth inhibition, 48 h
MDA-MB-468 breast = system: MDA-MB-468 breast
SNB-19 CNS = system: SNB-19 CNS
HCC-2998 colon = system: HCC-2998 colon
SF-268 CNS = system: SF-268 CNS
OVCAR-3 ovarian = system: OVCAR-3 ovarian
MALME-3M melanoma = system: MALME-3M melanoma
HS 578T breast = system: HS 578T breast
MDA-MB-231 breast = system: MDA-MB-231 breast
RXF 393 renal = system: RXF 393 renal
HCT-15 colon = system: HCT-15 colon
U251 CNS = system: U251 CNS
A498 renal = system: A498 renal
HCT-116 colon = system: HCT-116 colon
SK-OV-3 ovarian = system: SK-OV-3 ovarian
HT29 colon = system: HT29 colon
MOLT-4 leukemia = system: MOLT-4 leukemia
NCI-H522 lung = system: NCI-H522 lung
SK-MEL-28 melanoma = system: SK-MEL-28 melanoma
MCF7 breast = system: MCF7 breast
K-562 leukemia = system: K-562 leukemia
TK-10 renal = system: TK-10 renal
NCI-H226 lung = system: NCI-H226 lung
DU-145 prostate = system: DU-145 prostate
CAKI-1 renal = system: CAKI-1 renal
OVCAR-5 ovarian = system: OVCAR-5 ovarian
UACC-62 melanoma = system: UACC-62 melanoma
786-0 renal = system: 786-0 renal
MDA-MB-435 = system: MDA-MB-435
OVCAR-8 ovarian = system: OVCAR-8 ovarian
A549 NSCLC = system: A549 NSCLC
HOP-62 NSCLC = system: HOP-62 NSCLC
SF-295 CNS = system: SF-295 CNS
HOP-92 NSCLC = system: HOP-92 NSCLC
NCI-H460 lung = system: NCI-H460 lung
COLO 205 colon = system: COLO 205 colon
EKVX NSCLC = system: EKVX NSCLC
SK-MEL-5 melanoma = system: SK-MEL-5 melanoma
HL-60(TB) leukemia = system: HL-60(TB) leukemia
SK-MEL-2 melanoma = system: SK-MEL-2 melanoma
SW-620 colon = system: SW-620 colon
ACHN renal = system: ACHN renal
PC-3 prostate = system: PC-3 prostate
SR leukemia = system: SR leukemia
SN12C renal = system: SN12C renal
KM12 colon = system: KM12 colon
UO-31 renal = system: UO-31 renal
SF-539 CNS = system: SF-539 CNS
BT-549 breast = system: BT-549 breast
IGROV1 ovarian = system: IGROV1 ovarian
OVCAR-4 ovarian = system: OVCAR-4 ovarian
NCI-H23 lung = system: NCI-H23 lung
M14 melanoma = system: M14 melanoma
UACC-257 melanoma = system: UACC-257 melanoma
T-47D breast = system: T-47D breast

O=S(=O)(Nc1ccc(Br)cc1)c1ccc(-c2cnc(C3CC3)o2)cc1
GI50 (MDA-MB-468 breast): 1.13 µM | TGI (MDA-MB-468 breast): 7.28 µM

N#C[Se]Cc1cc(-c2ccccc2)n(-c2ccc(S(N)(=O)=O)cc2)n1
GI50 (MDA-MB-468 breast): 1.59 µM | TGI (MDA-MB-468 breast): 3.47 µM

c1ccc(-c2nc(-c3ccccn3)nc(-c3ccccn3)n2)nc1
GI50 (MDA-MB-468 breast): 30.4 µM | TGI (MDA-MB-468 breast): 99.1 µM

CC1=C([Se]CC(OC(=O)CC[Se]c2ccccc2)C(=O)NC(C)(C)C)C(=O)c2ccccc2C1=O (stereo unspecified)
GI50 (MDA-MB-468 breast): 0.509 µM | TGI (MDA-MB-468 breast): 2.06 µM

Cc1cc(=O)oc2cc(OCCOc3ccc(/C=C/C(=O)Nc4ccccc4N)cc3)ccc12
GI50 (SNB-19 CNS): 4.42 µM | TGI (SNB-19 CNS): > 100 µM | GI50 (HCC-2998 colon): 5.47 µM | TGI (HCC-2998 colon): > 100 µM | GI50 (SF-268 CNS): 4.43 µM | TGI (SF-268 CNS): > 100 µM | GI50 (OVCAR-3 ovarian): 4.19 µM | TGI (OVCAR-3 ovarian): > 100 µM | GI50 (MALME-3M melanoma): 3.89 µM | TGI (MALME-3M melanoma): > 100 µM | GI50 (HS 578T breast): > 100 µM | TGI (HS 578T breast): > 100 µM | GI50 (MDA-MB-231 breast): 2.55 µM | TGI (MDA-MB-231 breast): 35.1 µM | GI50 (RXF 393 renal): 3.64 µM | TGI (RXF 393 renal): > 100 µM | GI50 (HCT-15 colon): 3.17 µM | TGI (HCT-15 colon): > 100 µM | GI50 (U251 CNS): 5.59 µM | TGI (U251 CNS): > 100 µM | GI50 (A498 renal): 2.74 µM | TGI (A498 renal): 9.36 µM | GI50 (HCT-116 colon): 3.31 µM | TGI (HCT-116 colon): > 100 µM | GI50 (SK-OV-3 ovarian): 8.39 µM | TGI (SK-OV-3 ovarian): > 100 µM | GI50 (HT29 colon): 4.45 µM | TGI (HT29 colon): > 100 µM | GI50 (MOLT-4 leukemia): 0.294 µM | TGI (MOLT-4 leukemia): 1.34 µM | GI50 (NCI-H522 lung): 4 µM | TGI (NCI-H522 lung): > 100 µM | GI50 (SK-MEL-28 melanoma): 5.2 µM | TGI (SK-MEL-28 melanoma): > 100 µM | GI50 (MCF7 breast): 1.27 µM | TGI (MCF7 breast): > 100 µM | GI50 (K-562 leukemia): 3.01 µM | TGI (K-562 leukemia): > 100 µM | GI50 (TK-10 renal): 9.25 µM | TGI (TK-10 renal): > 100 µM | GI50 (NCI-H226 lung): 4.09 µM | TGI (NCI-H226 lung): > 100 µM | GI50 (DU-145 prostate): 6.8 µM | TGI (DU-145 prostate): > 100 µM | GI50 (CAKI-1 renal): 4.58 µM | TGI (CAKI-1 renal): > 100 µM | GI50 (OVCAR-5 ovarian): 6.43 µM | TGI (OVCAR-5 ovarian): > 100 µM | GI50 (UACC-62 melanoma): 3.74 µM | TGI (UACC-62 melanoma): > 100 µM | GI50 (786-0 renal): 3.75 µM | TGI (786-0 renal): > 100 µM | GI50 (MDA-MB-435): 6.69 µM | TGI (MDA-MB-435): > 100 µM | GI50 (OVCAR-8 ovarian): 3.99 µM | TGI (OVCAR-8 ovarian): > 100 µM | GI50 (A549 NSCLC): 4.27 µM | TGI (A549 NSCLC): > 100 µM | GI50 (HOP-62 NSCLC): 8.17 µM | TGI (HOP-62 NSCLC): > 100 µM | GI50 (SF-295 CNS): 4.8 µM | TGI (SF-295 CNS): > 100 µM | GI50 (HOP-92 NSCLC): 3.45 µM | TGI (HOP-92 NSCLC): > 100 µM | GI50 (NCI-H460 lung): 2.74 µM | TGI (NCI-H460 lung): > 100 µM | GI50 (COLO 205 colon): 3.68 µM | TGI (COLO 205 colon): > 100 µM | GI50 (EKVX NSCLC): 6.5 µM | TGI (EKVX NSCLC): > 100 µM | GI50 (SK-MEL-5 melanoma): 1.48 µM | TGI (SK-MEL-5 melanoma): 3.2 µM | GI50 (MDA-MB-468 breast): 3.41 µM | TGI (MDA-MB-468 breast): 96.2 µM | GI50 (HL-60(TB) leukemia): 0.369 µM | TGI (HL-60(TB) leukemia): 2.62 µM | GI50 (SK-MEL-2 melanoma): 5.81 µM | TGI (SK-MEL-2 melanoma): > 100 µM | GI50 (SW-620 colon): 4.16 µM | TGI (SW-620 colon): > 100 µM | GI50 (ACHN renal): 5.52 µM | TGI (ACHN renal): > 100 µM | GI50 (PC-3 prostate): 3.1 µM | TGI (PC-3 prostate): > 100 µM | GI50 (SR leukemia): 5.66 µM | TGI (SR leukemia): > 100 µM | GI50 (SN12C renal): 2.77 µM | TGI (SN12C renal): > 100 µM | GI50 (KM12 colon): 5.12 µM | TGI (KM12 colon): > 100 µM | GI50 (UO-31 renal): 1.31 µM | TGI (UO-31 renal): > 100 µM | GI50 (SF-539 CNS): 2.58 µM | TGI (SF-539 CNS): > 100 µM | GI50 (BT-549 breast): 1.2 µM | TGI (BT-549 breast): 4.93 µM | GI50 (IGROV1 ovarian): 2.08 µM | TGI (IGROV1 ovarian): > 100 µM | GI50 (OVCAR-4 ovarian): 4.86 µM | TGI (OVCAR-4 ovarian): > 100 µM | GI50 (NCI-H23 lung): 6.05 µM | TGI (NCI-H23 lung): > 100 µM | GI50 (M14 melanoma): 9.87 µM | TGI (M14 melanoma): > 100 µM | GI50 (UACC-257 melanoma): 2.87 µM | TGI (UACC-257 melanoma): > 100 µM | GI50 (T-47D breast): 1.59 µM | TGI (T-47D breast): > 100 µM
